Entries after “also recorded” stand apart in the source; their conditions may differ. Read-outs that look alike come from different tables or passages of the source.
How the values were obtained:
[1] = test system: GABAB receptor-mediated outward current in hypothalamic arcuate (dopamine, POMC) neurons; membrane associated estrogen receptor; experiment: Whole-cell patch voltage clamp: baclofen-induced GABAB response (GIRK outward current) in hypothalamic arcuate neurons; type: cell-based, guinea pig
[2] = biological target: T1, full length (ER)α (Homo sapiens, UniProt P03372); experiment: Estrogen receptor binding assay (spin column, [3H]estradiol competition), (ER)α
T1 construct: purchased PanVera Corp, Madison, Wis., USA
T1 sequence (P03372 1-595): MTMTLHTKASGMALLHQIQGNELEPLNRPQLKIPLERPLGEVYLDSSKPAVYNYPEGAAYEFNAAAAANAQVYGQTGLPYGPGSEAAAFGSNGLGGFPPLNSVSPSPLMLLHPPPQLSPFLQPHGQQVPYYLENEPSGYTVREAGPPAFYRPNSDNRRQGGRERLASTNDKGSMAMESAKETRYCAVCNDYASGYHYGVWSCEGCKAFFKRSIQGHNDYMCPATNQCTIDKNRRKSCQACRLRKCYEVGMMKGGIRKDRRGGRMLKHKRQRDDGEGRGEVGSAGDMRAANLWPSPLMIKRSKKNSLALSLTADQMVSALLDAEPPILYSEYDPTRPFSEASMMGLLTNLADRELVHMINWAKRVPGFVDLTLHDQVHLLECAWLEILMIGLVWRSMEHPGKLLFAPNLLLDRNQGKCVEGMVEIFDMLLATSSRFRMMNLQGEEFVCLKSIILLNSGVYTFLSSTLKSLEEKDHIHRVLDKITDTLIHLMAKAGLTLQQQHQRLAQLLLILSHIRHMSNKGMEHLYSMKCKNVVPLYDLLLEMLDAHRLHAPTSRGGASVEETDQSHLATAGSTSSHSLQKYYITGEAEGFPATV

[3] = biological target: T2, full length (ER)β (Homo sapiens, UniProt Q92731); experiment: Estrogen receptor binding assay (spin column, [3H]estradiol competition), (ER)β
T2 construct: to full length (ER)α or (ER)β*; purchased PanVera Corp, Madison, Wis., USA

[4] = test system: uteri of ovariectomized C57BL/6 mice; experiment: Uterine size and weight in ovariectomized mice (uterotropic action); type: in vivo; details: 1 μg daily for 2 days, compared with oil vehicle
Description: Wild-type C57BL/6 mice in these studies were obtained from Jackson laboratories. All animals were maintained under controlled temperature (25° C.) and photoperiod conditions (14-h light, 10-h dark; lights on between 0700 and 2100) with food and water ad libitum. Adult mice were ovariectomized under isoflurane anesthesia, and allowed to recover for 1 week. […] The uteri were collected, weighed and fixed in 4% paraformaldehyde for later histological analysis (data not shown).

[5] = 10 μM (PD98059 in the pipette), together with 17β-estradiol

T2 sequence (Q92731 whole entry): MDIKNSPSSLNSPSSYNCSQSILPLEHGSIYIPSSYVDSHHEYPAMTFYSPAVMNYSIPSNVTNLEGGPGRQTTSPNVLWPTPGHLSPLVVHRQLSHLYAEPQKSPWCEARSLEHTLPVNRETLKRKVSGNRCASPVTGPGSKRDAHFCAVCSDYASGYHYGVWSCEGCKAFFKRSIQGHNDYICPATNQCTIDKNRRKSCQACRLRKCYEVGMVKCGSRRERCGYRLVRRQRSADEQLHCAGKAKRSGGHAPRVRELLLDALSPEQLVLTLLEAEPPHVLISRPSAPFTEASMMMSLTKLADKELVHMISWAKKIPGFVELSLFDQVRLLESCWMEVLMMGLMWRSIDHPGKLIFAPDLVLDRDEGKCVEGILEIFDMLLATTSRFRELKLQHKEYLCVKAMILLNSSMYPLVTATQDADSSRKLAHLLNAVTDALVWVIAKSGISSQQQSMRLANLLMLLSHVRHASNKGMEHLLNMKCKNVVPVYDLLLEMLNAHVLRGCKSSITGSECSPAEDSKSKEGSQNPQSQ

Cl.Cl.O=S(=O)(NCCNC/C=C/c1ccc(Br)cc1)c1cccc2cnccc12 [Compound H89]
effect on the 17β-estradiol attenuation of the baclofen response (in words) [1, 5]: blocked

O=C(c1ccc(OCCN2CCCCC2)cc1)c1c(-c2ccc(O)cc2)sc2cc(O)ccc12 [Raloxifene, raloxifene]
effect on the baclofen response (in words) [1]: completely mimicked the actions of 17β-estradiol; also recorded: behave like 17β-estradiol

COc1ccc2c(c1)CC[C@@H]1[C@@H]2CC[C@]2(C)[C@@H](NCCCCCCN3C(=O)CCC3=O)CC[C@@H]12 [Compound U73343]
effect on the 17β-estradiol attenuation of the baclofen response (in words) [1, 5]: no effect

O=C(O)CN(CC(=O)O)c1ccccc1OCCOc1ccccc1N(CC(=O)O)CC(=O)O [BAPTA, 1,2-bis-(o-aminophenoxyethane)-N,N,N′,N′-tetraacetic acid]
effect on the 17β-estradiol attenuation of the baclofen response (in words) ([1]; 10 mM in the internal solution replacing EGTA, with 17β-estradiol): still observed

C[C@]12CC[C@@H]3c4ccc(O)cc4C[C@@H](CCCCCCCCC[S+]([O-])CCCC(F)(F)C(F)(F)F)[C@H]3[C@@H]1CC[C@@H]2O (some centres unmarked) [ICI 182,780]
effect on the baclofen response (in words) ([1]; 1 μM, substance alone): no effect
effect on the 17β-estradiol attenuation of the baclofen response (in words) ([1]; 1 μM, together with 17β-estradiol (100 nM)): blocked
effect on the 17β-estradiol attenuation of the baclofen response (in words) ([1]; 1 μM, together with 17β-estradiol (100 nM), listed as ICI-182,780): antagonizes the 17β-estradiol response

CC/C(=C(\c1ccccc1)c1ccc(OCCN(C)C)cc1)c1ccccc1 [Tamoxifen, tamoxifen]
effect on the 17β-estradiol attenuation of the baclofen response (in words) [1]: did not attenuate the effects of 17β-estradiol
effect on the baclofen response (in words) [1]: inactive

Ac-LGLNLKEYNLV-OH [Gq peptide]
effect on the 17β-estradiol attenuation of the baclofen response (in words) [1]: significantly blocked

17β-estradiol 17-hemisuccinate: BSA [17β-estradiol-BSA]
effect on the baclofen response (in words) ([1]; 100 nM, substance alone): fully efficacious in inhibiting the baclofen response; also recorded: inhibited the baclofen response; also recorded: identical response to free 17β-estradiol

CC(=O)c1c(O)c(C)c(O)c(Cc2c(O)c3c(c(C(=O)/C=C/c4ccccc4)c2O)OC(C)(C)C=C3)c1O [rottlerin]
effect on the 17β-estradiol attenuation of the baclofen response (in words) [1]: completely blocked

COc1cccc(-c2cc(=O)c3ccccc3o2)c1N [PD98059]
effect on the 17β-estradiol attenuation of the baclofen response (in words) [1, 5]: did not affect 17β-estradiol inhibition of baclofen responses
R2/R1 (second over first baclofen response), substance + 17β-estradiol ([1]; substance 10 μM in the pipette together with 17β-estradiol): 66.1±11.8%

C[C@]12CC[C@@H]3c4ccc(O)cc4CC[C@H]3[C@@H]1CC[C@H]2O [17α-estradiol]
effect on the baclofen response (in words) ([1]; 1 μM, substance alone): no effect; also recorded: inactive; also recorded: no effects were observed

C[C@]12CC[C@@H]3c4ccc(O)cc4CC[C@H]3[C@@H]1CC[C@@H]2O [17β-estradiol]
R2/R1 (second over first baclofen response) [1]: 58.6±3.4%
decrease in the response to a second application of baclofen (GABAB outward current) [1]: 41%
effect on the baclofen response (in words) ([1]; 100 nM, substance alone): no effect

4-hydroxytamoxifen
Relative binding affinity (ER)α [2]: 36%
Relative binding affinity (ER)β [3]: 43%
block of the baclofen response [1]: 25%
effect on the baclofen response (in words) [1]: behave like 17β-estradiol

CN(C)CCCn1cc(C2=C(c3c[nH]c4ccccc34)C(=O)NC2=O)c2ccccc21.Cl [BIS, bisindolylmaleimide I hydrochloride]
effect on the 17β-estradiol attenuation of the baclofen response (in words) [1]: nearly eliminated the effects of 17β-estradiol

COc1ccc2c(c1)CC[C@@H]1[C@@H]2CC[C@]2(C)[C@@H](NCCCCCCN3C(=O)C=CC3=O)CC[C@@H]12 [Compound U73122]
effect on the 17β-estradiol attenuation of the baclofen response (in words) [1, 5]: blocked

C[C@]12CC[C@@H]3c4ccc(OC(=O)c5ccccc5)cc4CC[C@H]3[C@@H]1CC[C@@H]2O [estradiol benzoate]
uterine size [4]: noticeable increase in uterine size

Nc1ncnc2c1ncn2[C@@H]1O[C@@H]2COP(O)(=S)O[C@H]2[C@H]1O (some centres unmarked) [Rp-cAMP]
effect on the 17β-estradiol attenuation of the baclofen response (in words) ([1]; 200 μM, intracellular dialysis, with 17β-estradiol): abolished

CC/C(=C(\c1ccccc1)c1ccc(/C=C/C(=O)O)cc1)c1ccccc1 [GW-5638]
effect on the baclofen response (in words) ([1]; 1 μM, substance alone): significantly more efficacious than 17β-estradiol; also recorded: behave like 17β-estradiol

Cn1c2ccccc2c2c3c(c4c5ccccc5n(CCC#N)c4c21)CNC3=O [Gö6976]
effect on the 17β-estradiol attenuation of the baclofen response (in words) ([1]; concentration not given, with 17β-estradiol): without effect

N#CC(=C(/N)Sc1ccccc1N)/C(C#N)=C(/N)Sc1ccccc1N [Compound U0126]
effect on the 17β-estradiol attenuation of the baclofen response (in words) ([1]; 5 μM, with 17β-estradiol): did not affect 17β-estradiol inhibition of baclofen responses
